One assay concerns brain dopamine synthesis. Nature of the assay: Reversal of brain dopamine synthesis in rats (inhibition of dopamine synthesis). The assay is classed as in vivo. The settings on record: 10 mg/kg, IP. As for the experimental part: (§1) The compounds of Formula I are valuable dopaminergic agents. […] Thus, the compounds of Formula I were tested for their ability to inhibit locomotor activity in mice according to the assay described by J. R. McLean, et al, Pharmacology, Biochemistry and Behavior, Volume 8, pages 97-99 (1978); for their ability to inhibit [^3 H]-spiroperidol binding in a receptor assay described by D. Griogoriadis and P. Seeman, Journal of Neurochemistry, Volume 44, pages 1925-1935 (1985); and for their ability to inhibit dopamine synthesis in rats according to the protocol described by J. R. Walters and R. H. Roth, Naunyn-Schmiedeberg's Archives of Pharmacology, Volume 296, pages 5-14 (1976). The above test methods are incorporated herein by reference. The data in the table show the dopaminergic activity of representative compounds of Formula I.

For the next assay, the system named is locomotor activity. Nature of the assay: Inhibition of locomotor activity in mice. The format is in vivo. The settings on record: Mus musculus, IP. As for the experimental part:
as §1

Assay [1] deals with [^3 H]spiroperidol binding. Nature of the assay: Inhibition of [^3 H]spiroperidol binding in a receptor assay. The settings on record: [^3 H]spiroperidol radioligand. On the procedure: as §1

Turning to `C1=C(c2ccccc2)CCN(CCSCc2cccnc2)C1.Cl.Cl` [Example 1, 3-[[[2-(1,2,3,6-Tetrahydro-4-phenyl-1-pyridinyl)ethyl]thio]methyl]pyridine, dihydrochloride], in the assay with brain dopamine synthesis, the “% Reversal of Brain Dopamine Synthesis in Rats” value (from here on “% Reversal”) was 70%. This compound also returned an ED50 in the assay on locomotor activity of 0.18 mg/kg.

`C1=C(c2cccs2)CCN(CCCSc2ccncc2)C1` [Example 2, 4-[[3-[3,6-Dihydro-4-(2-thienyl)-1(2H)-pyridinyl]propyl]thio]pyridine] had an IC50 in assay [1] of 86 µM. In the assay with locomotor activity, this compound registered an ED50 of 0.5 mg/kg.

Consider `C1=C(c2ccccc2)CCN(CCCSc2ccncc2)C1` [Example 3, 4-[[3-(3,6-Dihydro-4-phenyl-1(2H)-pyridinyl)propyl]thio]pyridine], for which the “% Reversal” value in the assay with brain dopamine synthesis is recorded as 48%. For the same compound, the IC50 in assay [1] stood at 46 µM. Besides, in the assay with locomotor activity, the ED50 came out at 0.4 mg/kg.

As to `C1=C(c2ccccc2)CCN(CCCCSc2ccncc2)C1` [Example 4, 1,2,3,6-Tetrahydro-4-phenyl-1-[4-(4-pyridinylthio)butyl]pyridine], the “% Reversal” value with brain dopamine synthesis came to 82%. This compound gave an IC50 in assay [1] of 92 µM. It took a dose of 1 mg/kg to reach the 50% effect level in the assay with locomotor activity (ED50).

For the compound `C1=C(c2cccs2)CCN(CCCCSc2ccncc2)C1.Cl.Cl` [Example 5, 1,2,3,6-Tetrahydro-1-[4-(4-pyridinylthio)butyl]-4-(2-thienyl)pyridine, dihydrochloride], the “% Reversal” value in the assay with brain dopamine synthesis is listed as 47%. This compound also registered an IC50 in assay [1] of 190 µM. In the assay on locomotor activity, the 50% effect level (ED50) was put at a dose of 1.8 mg/kg.

Usually ED50 stands for the midpoint of the dose-response relation. Low values mean greater potency, high ones weaker potency. In general, IC50 refers to the midpoint of a concentration-inhibition curve. Low readings indicate greater potency in that assay, high ones weaker potency in that assay.

Values taken from US5120748A, “Substituted 1,2,3,6-tetrahydropyridines as central nervous system agents” (Warner-Lambert Company, priority 1991, dated 1992).
